Values of other authors in US20210329915A1, “ABSORPTION PROMOTER, FLYING-INSECT PEST REPELLENT FRAGRANCE-CONTAINING COMPOSITION, AND FLYING-INSECT PEST REPELLENT PRODUCT” (DAINIHON JOCHUGIKU Co., Ltd., priority 2018, published 2021).

| Compound | Vapor pressure at 20° C. [Pa] |
| --- | --- |
| CCCCOCCOCCO [diethylene glycol monobutyl ether] | 3 |
| CC(O)CO (stereo not drawn) [propylene glycol] | 10.7 |
| OCCOCCO [diethylene glycol] | 3 |

The remaining lines, values ahead:

| Vapor pressure at 20° C. [Pa] | Compound |
| --- | --- |
| 2.7 | OCCOCc1ccccc1 [benzyl glycol] |
| 0.67 | CC(O)COC(C)COC(C)CO (stereo not drawn) [tripropylene glycol] |
| 1 | OCCOCCOCCO [triethylene glycol] |
